Results on one molecule are retold here after publication PMC9605072, “Guanidine Derivatives of Quinazoline-2,4(1H,3H)-Dione as NHE-1 Inhibitors and Anti-Inflammatory Agents” (Life, 2022).

“Also recorded” adds a separate entry of the source.

A word on the inhibition: it is the share of the control response that was lost under treatment. A low value points to a weak effect. In general, IC50 refers to the midpoint of a concentration-inhibition curve. The term CC50 denotes the concentration that lowers cell viability or growth by half. What is called melting point is the temperature of the solid-liquid transition.

The target of one data set is T1, rabbit platelet NHE-1 (Oryctolagus cuniculus, UniProt P23791).
T1 construct: endogenous in cells; host or cells: rabbit platelets
T1 sequence (P23791 whole entry): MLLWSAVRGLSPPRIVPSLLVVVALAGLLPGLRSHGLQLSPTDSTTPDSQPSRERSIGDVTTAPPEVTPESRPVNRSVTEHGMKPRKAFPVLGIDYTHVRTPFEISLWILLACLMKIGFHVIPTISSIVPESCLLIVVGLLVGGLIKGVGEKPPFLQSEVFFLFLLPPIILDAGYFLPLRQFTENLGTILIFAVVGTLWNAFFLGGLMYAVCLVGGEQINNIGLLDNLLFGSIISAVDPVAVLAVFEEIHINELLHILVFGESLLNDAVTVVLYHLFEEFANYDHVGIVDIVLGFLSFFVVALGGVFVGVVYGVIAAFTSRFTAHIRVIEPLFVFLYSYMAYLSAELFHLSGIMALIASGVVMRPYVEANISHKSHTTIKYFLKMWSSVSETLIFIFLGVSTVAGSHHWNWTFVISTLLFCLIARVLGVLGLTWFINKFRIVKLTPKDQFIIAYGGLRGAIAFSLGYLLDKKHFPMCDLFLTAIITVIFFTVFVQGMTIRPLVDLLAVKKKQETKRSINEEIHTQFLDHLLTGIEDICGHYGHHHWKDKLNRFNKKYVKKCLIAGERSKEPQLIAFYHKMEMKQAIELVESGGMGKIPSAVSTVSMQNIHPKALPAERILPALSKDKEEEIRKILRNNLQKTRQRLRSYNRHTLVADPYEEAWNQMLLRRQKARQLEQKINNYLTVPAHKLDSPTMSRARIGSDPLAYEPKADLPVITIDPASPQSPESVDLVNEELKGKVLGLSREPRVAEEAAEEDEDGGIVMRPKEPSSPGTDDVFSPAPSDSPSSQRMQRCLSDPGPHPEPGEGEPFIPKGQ
Put plainly: NHE-1 inhibition assay (rabbit platelets, laser aggregometer). The data set is classed as cell-based. Here is the method: Inhibition of rabbit platelet NHE-1 was determined according to the method of [8, 9] in our modification, which was reported by us previously using the laser aggregometer BIOLA-220 LA (Russia).
Target compounds were evaluated as inhibitors of rabbit platelet NHE-1 (Table 1). It was shown that the substitution of H^5 with bromine decreased the activity of compounds 3b and 4b, indicating possible steric limitations of the binding site.

Data set [1] is described as follows: Cytotoxicity, lactate dehydrogenase (LDH) assay. It is filed as cell-based, mice. Particulars: C57bl/6j, mouse, primary peritoneal macrophages stimulated with E. coli LPS; LPS-stimulated macrophages; n = 3; read-out: LDH CC50 ± SE. Here is the method:
(§1) The activity of lactate dehydrogenase (LDH) in a cell culture medium was determined as reported by us previously with a microplate reader Infinite M200 PRO (Tecan, Austria).
(§2) Given our primary focus on the development of agents against cytokine-mediated tissue damage, we evaluated the target compounds as inhibitors of pro-inflammatory macrophage activation. Primary peritoneal macrophages were isolated from C57bl/6j mice, pooled, and stimulated with E. coli LPS as TLR4 agonist. Pro-inflammatory activation was assessed as nitric oxide (NO) synthesis and interleukin-6 (IL-6) secretion. The cytotoxicity of the compounds was monitored in parallel using the lactate dehydrogenase assay.
(§3) In an attempt to identify safer alternatives to steroid anti-inflammatory agents, it is mandatory to evaluate lead compounds for immunodepressant activity. To do so, we determined the influence of compound 4a on macrophage phagocytosis after 72 h of incubation. Cell viability was monitored in parallel via the LDH assay.

Data set [2] relates to C57bl/6j peritoneal macrophages. Put plainly: Cytotoxicity, lactate dehydrogenase (LDH) assay. It is filed as cell-based, mice. To be noted: 72 h of incubation, in parallel to phagocytosis. Here is the method: as §1, §2, §3
The test system is the same in data set [3]. Description: Macrophage phagocytosis assay. It is filed as cell-based, mice. Here is the method:
The phagocytic activity of peritoneal macrophages was assessed after staining with Azur-Eosin with Romanovsky’s modifications as reported by us previously with a light microscopy using a Mikmed-6 (LOMO, Saint Petersburg, Russia) equipped with a digital camera.
as §3
(Figure 3). The mean number of phagocytosed particles per cell was […]. […] Macrophage spreading was registered and visually scored as a phenotypic marker of cell activation phagocytic capacity.

The next data set concerns C57bl/6j mice. Description: LPS-induced acute lung injury model. It is filed as in vivo. To be noted: 4a 50 mg/kg (30 mg/kg in source) i.p. Here is the method:
Prior to the experiment, C57BL/6J mice were randomized according to body weight and motor activity in an open field test. […] Animals of the control group were injected with an equal volume of the vehicle. Animals were anesthetized with isoflurane inhalation until the breathing rate decreased 1 h later. Mice were suspended by the front incisors on an inclined surgical table; the tongue was pulled out with narrow curved tweezers, and 1 mg/mL of E. coli O127:B8 LPS (Sigma-Aldrich, Israel) in 1 mL/kg sterile saline was injected into the back of the oropharynx to allow aspiration. Intact animals received an equal volume of sterile saline in a similar way.
The open field test was performed with the NPO “Open Science” (Russia) arena of 44 cm diameter and 32 cm wall height under 300 lux lighting as reported by us previously.
Mice were anesthetized with 500 mg/kg chloral hydrate (Sigma-Aldrich, Germany) intraperitoneally 24 h after LPS administration. Blood and bronchoalveolar lavage (BAL) sampling was performed as described in [13]. Leukocyte counts and the lung permeability index were determined as described by us previously.
Histological and immunohistological assessment of tissue sections was performed in a semi-quantitative way on paraffin sections after hematoxylin and eosin staining with a light microscope (Zeiss, Germany) with double-blinding. The degree of inflammation was determined as previously reported.
Lung injury was assessed 24 h later based on behavioral, biochemical, cytological, and morphological alterations.

The subject of data set [4] is LPS-stimulated C57bl/6j peritoneal macrophages. Description: LPS-induced IL-6 secretion in primary peritoneal macrophages (ELISA). It is filed as cell-based, mice. To be noted: Mus musculus, Peritoneal macrophage; LPS 100 ng/mL; n = 3; read-out: IL-6 Secretion IC50 ± SE. Here is the method:
(§4) Primary C57bl/6j murine macrophages were elicited with intraperitoneal injection of 3% peptone solution as per the standard procedure. Stimulation of inflammatory response was performed with E. coli O127:B8 LPS (100 ng/mL final concentration).
(§5) Nitric oxide was determined in culture supernatants as a nitrite anion with a standard Griess reagent after 22 h of incubation with test compounds at a wavelength of 550 nm with a microplate reader Infinite M200 PRO (Tecan GmbH, Grodig, Austria). Concentrations of IL-6 and TNF- α in cell supernatants were quantified with commercial ELISA kits according to the manufacturer’s instructions (Cloud-clone Corp., Katy, TX, USA).
as §2
For orientation: An ELISA detects its analyte on a solid surface through an enzyme-linked reagent.

Another data set has as its system male ICR mice. Put plainly: Tail suspension test (antidepressant activity). It is filed as in vivo. Particulars: 4.0 mg/kg; mean ± SD, n = 6; vehicle 264.8 ± 11.6 s. Here is the method:
Antidepressant activity was determined on 36 male ICR mice weighing 22–25 g as described in [14] using the Panlab LE808 apparatus.
The tail suspension test was used to assess the antidepressant activity of the most-active NHE-1 inhibitors.

A further data set concerns rabbit platelets. Put plainly: ADP-induced platelet aggregation assay. Particulars: Oryctolagus cuniculus, m ± SD, n = 5. The data set is classed as cell-based. Here is the method:
Platelet aggregation was assessed on a two-channel laser analyzer “BIOLA-220 LA” (Russia) as described previously using rabbit platelets.

A further data set has as its system rat intraocular pressure. Description: Intraocular pressure study (TonoVet). It is filed as in vivo. To be noted: rats; 0.4% eye drops; m ± SD, n = 5. Here is the method:
Intraocular pressure was measured on 75 adult outbred rats of both sexes with a TonoVet device (Finland) as reported by us previously.
To access the influence on rat eye aqueous humor formation, the studied compounds were administered as 0.4% eye drops. […] Introduction of 5-bromine (4b) or acyclic guanidine N^1 , N^3 -side chains (3a) led to 2- and 3-fold activity reduction, respectively.

Data set [5] concerns LPS-stimulated C57bl/6j peritoneal macrophages. Put plainly: LPS-induced nitric oxide synthesis in primary peritoneal macrophages (Griess). It is filed as cell-based, mice. Particulars: Mus musculus, Peritoneal macrophage; LPS 100 ng/mL; 22 h incubation; n = 3; read-out: NO Synthesis IC50 ± SE. Here is the method: as §4, §5, §2
On the technique in general: The Griess reaction detects nitrite, a stable product of nitric oxide.

Molecule `Nc1nnc(Cn2c(=O)c3ccccc3n(Cc3nnc(N)[nH]3)c2=O)[nH]1` [Compound 4a, 1,3-Bis[(5-amino-4H-1,2,4-triazol-3-yl)methyl]quinazoline-2,4(1H,3H)-dione] gave a melting point of 314 to 318 °C. At rabbit platelet NHE-1 (10 nM, m ± SD, n = 6, rabbit platelets), the inhibition at 0.01 µM worked out at 29.4 ± 4.4%. On rabbit platelet NHE-1 (rabbit platelets), this molecule yielded an IC50 of 0.324 µM. Also, the “NHE-1 potency relative to amiloride” value at rabbit platelet NHE-1 (ratio of IC50 vs amiloride) is “exceeding amiloride by four times”. For the same molecule, the CC50 in [1] was greater than 100 µM. In data set [2], the “Cell viability (LDH assay)” value is listed as “slightly decreased”. In data set [3] (72 h of incubation), the “Decrease of the mean number of phagocytosed particles” value is listed as 23% and the Phagocytic activity result is reported as “insignificantly influenced”. For the same molecule, the “Macrophage spreading (visually scored)” value in data set [3] (yeast-treated macrophages, 72 h) is listed as “marginally reduced spreading”. Further, the “Exploratory activity, open field test” value with C57bl/6j mice was “comparably improved exploratory activity”. Further, in the data set on C57bl/6j mice (2 and 22 h after LPS), the “Motor activity, open field test” value is “restored the motor activity of animals”. Also, in the data set on C57bl/6j mice (24 h after LPS), the “CD68+ macrophage accumulation in lung tissue (immunostaining)” value is “effectively limited LPS-induced inflammation”; the “Lung tissue histology (hematoxylin and eosin)” value was “reduced LPS-induced inflammation in mouse lung tissue”; the “Plasma IL-6” value is listed as “significantly reduced plasma IL-6”; the “Pulmonary (alveolar) vessel permeability” value was “preserved pulmonary vessels’ permeability”. For the same molecule, the “Segmented neutrophils in BAL” value in the data set with C57bl/6j mice (24 h after LPS) was “significantly ameliorated the accumulation of segmented neutrophils; also recorded: most pronounced inhibition of the neutrophil migration”. In addition, the IC50 in [4] is 51.8 ± 1.65 µM. In the data set on male ICR mice, the “Immobilization Time” value is 164.4 ± 23.19 s. In the data set with rabbit platelets, at 100 µM the inhibition was 39.3 ± 11.9%. Besides, the “Max IOP Reduction” value in the data set with rat intraocular pressure was 28.25 ± 7.92%. For the same molecule, the IC50 in data set [5] is 73 ± 7.83 µM.
